Measured values reported in US10201536B2, “Methods and pharmaceutical compositions for the treatment of bacterial infections in patients suffering from cirrhosis” (INSERM (INSTITUT NATIONAL DE LA SANTE ET DE LA RECHERCHE …, priority 2015, dated 2019).
Residues, ends and D or L forms follow the SMILES beside them. *: point of attachment. MeOSuc = COC(=O)CCC(=O)*; CH2Cl = ClC*

Key:
Type in all cases: cell-based
neutrophil elastase [1] = molecular target: T1, neutrophil elastase (Homo sapiens, UniProt P08246); test: fMLP-induced depletion of gp91phox and p22phox in healthy PMN with elastase inhibitor; details: 100 μM 15 min before fMLP (1 μM) 45 min
T1 construct: a cell-free degranulation supernatant obtained from fMLP (1 μM, 2 min) stimulated PMN; endogenous in cells; host or cells: healthy human PMN stimulated with fMLP, or their cell-free degranulation supernatant
T1 sequence (P08246 30-267): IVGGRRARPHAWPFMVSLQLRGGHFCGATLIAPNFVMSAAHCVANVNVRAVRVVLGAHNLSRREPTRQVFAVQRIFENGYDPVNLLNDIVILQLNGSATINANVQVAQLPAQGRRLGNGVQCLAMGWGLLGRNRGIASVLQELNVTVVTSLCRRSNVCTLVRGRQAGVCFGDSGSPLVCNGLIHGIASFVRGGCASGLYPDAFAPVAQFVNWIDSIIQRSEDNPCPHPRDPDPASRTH
Experimental: (§1) FIG. 8. Elastase induces the degradation of gp91phox and p22phox in healthy PMN. (A and B) Western-blot analysis and densitometric quantification of gp91phox and p22phox in healthy PMN treated in the absence or presence of elastase at 0.1 and 0.5 units for 1 hour. (C and D) Western-blot analysis densitometric quantification of gp91phox and […] in healthy PMN treated in the absence or presence of the elastase inhibitor (NEI) at 100 μM for 15 min before stimulation with fMLP (1 μM) for 45 min. (E) Western-blot analysis densitometric quantification of gp91phox in healthy PMN pretreated in the absence or presence of the elastase inhibitor (NEI) at 100 μM for 15 min before incubation for 45 min with a cell-free degranulation supernatant obtained from fMLP (1 μM, 2 min) stimulated PMN. Blots are representative of 4 experiments and densitometric analyses are cumulative and expressed as percentage of the actin level. […] (F) Sensorgrams of the PMN specific binding and dissociation to the anti-gp91phox antibody (7D5) coated to the CM3 sensorchip, analysed with the Biacore X100, as a function of time. […] Data are representative of 3 independent experiments are expressed as resonance unit (RU). (G) Flow cytometry quantification of the Gp91phox expression at the surface of PMN treated or not (Control) with 0.5 unit Elastase at 4° C. […]

neutrophil elastase [2] = molecular target: T1, neutrophil elastase; test: gp91phox degradation in healthy PMN by cell-free degranulation supernatant with elastase inhibitor; details: 100 μM 15 min pretreatment, 45 min supernatant
Experimental: as §1

elastase [3] = molecular target: T2, elastase (Homo sapiens, UniProt P08246); test: gp91phox surface expression of healthy PMN treated with plasma from cirrhotic patients, with NEI; details: 12 H, 25% plasma, 100 μM
T2 construct: with plasma of healthy volunteers or cirrhotic patients, (25% plasma in 1 ml RPMI containing 5×10^6 PMN); from tissue; host or cells: plasma of cirrhotic patients, incubated with healthy human PMN
T2 sequence (P08246 30-267): T1 sequence (P08246 30-267)
Experimental: (§2) FIG. 9. Plasma from cirrhotic patients reduces gp91phox expression at the surface of healthy PMN and ROS production in NEI-sensitive manner. PMN were pretreated for 12 H at 37° C. with RPMI (control) or with plasma of healthy volunteers or cirrhotic patients, (25% plasma in 1 ml RPMI containing 5×10^6 PMN) either in the absence or presence of the elastase inhibitor NEI (100 μM). PMN were labelled with the anti-gp91phox FITC-coupled antibody. (A) Quantification of the number of positive cells labeled with the anti-gp91phox FITC-coupled antibody (7D5) by Flow cytometry, expressed as percentage of control values. […] (C, D) Time course production of superoxide induced by PMA by healthy PMN which were pretreated for 12 H in the absence (Buffer/RPMI) or presence of plasma from healthy volunteers and cirrhotic patients, either with or without 100 μM NEI. (E) Production of superoxide expressed as percentage of control values (mean±SEM, n=5). […]
(§3) Granulocyte elastase is released during infectious processes and has been proposed to be helpful for the diagnosis of patients with spontaneous bacterial peritonitis (Casafon et al., 1999), a major complication of the alcoholic liver cirrhosis. […] Consistent with this observation, patients' plasmas inhibited NOX2 activity of PMN measured by the cytochrome C assay (FIGS. 9C-E) and chemiluminescence.

elastase [4] = molecular target: T2, elastase; test: NOX2 activity (superoxide production) of healthy PMN treated with plasma from cirrhotic patients, with NEI; details: 12 H, 25% plasma, 100 μM, PMA-induced superoxide
Experimental: as §2, §3

fMLP-induced depletion of gp91phox and p22phox (neutrophil elastase [1]): prevented | gp91phox degradation by cell-free degranulation supernatant (neutrophil elastase [2]): blocked gp91phox degradation | decrease of gp91phox positive cells and surface expression caused by patients' plasma (elastase [3]): prevented | inhibition of NOX2 activity by patients' plasma (elastase [4]): prevented the inhibitory effects
SMILES: COC(=O)CCC(=O)N[C@@H](C)C(=O)N[C@@H](C)C(=O)N1CCC[C@H]1C(=O)N[C@H](C(=O)CCl)C(C)C [NEI, MeOSuc-AAPV-CMK] (MeOSuc-AAPV-CH2Cl)
